Data published in patent US5064953A, “Intermediates cephalosporin derivatives” (Mochida Pharmaceutical Co., Ltd., priority 1983, dated 1991).
Values after ≈ are worked out from the molar mass of the structure shown.

Key:
[1] = system: Staphylococcus 242 (Methicillin-resistant strain); assay: Protection ability against systemic infection; format: in vivo; conditions: iv, 168 h, ICR mice, intraperitoneal infection, compound intravenously 1 hour after infection, survival at 1 week
Procedure: (§1) Protection ability against systemic infection was determined as follows. An aqueous suspension of test bacteria was intraperitoneally injected into groups of 10 four week old ICR mice. One hour after the infection, test compounds were intravenously administered. The number of surviving mice was counted 1 week after injection to determine the dose at which 50% of the test animals were alive (ED50 :mg/kg).
*Methicillin-resistant strain

[2] = LD50 determined in accordance with the Probit method; conditions: in vivo, iv
Procedure: Next, LD50 of representative examples of the compounds of the present invention is shown in Table 3 wherein LD50 was determined in accordance with the Probit method.

Escherichia coli 67 [3] = assay: Antibacterial activity in vitro, agar plate dilution method (MIC); format: cell-based; conditions: 10^6 cells/ml, Mueller Hinton agar, 37° C., 20 hours
Procedure: (§2) Antibacterial activity in vitro was determined in accordance with the agar plate dilution method. A platinum loop each of test bacteria (10^6 cells/ml), cultured in Mueller Hinton broth, was inoculated on Mueller Hinton agar plates which contained test compounds at various concentrations. After cultivating at 37° C. for 20 hours, the minimum inhibitory concentration (MIC μg/ml) was determined.

[4] = system: Klebsiella pneumoniae IF03317; assay: as above; format: cell-based; conditions: 10^6 cells/ml, Mueller Hinton agar, 37° C., 20 hours
Procedure: as §2

Proteus morganii IF03848 = assay: as above; format: cell-based; conditions: Morganella morganii, 10^6 cells/ml, Mueller Hinton agar, 37° C., 20 hours
Procedure: as §2

[5] = system: Pseudomonas aeruginosa IF03445; assay: as above; format: cell-based; conditions: 10^6 cells/ml, Mueller Hinton agar, 37° C., 20 hours
Procedure: as §2

[6] = system: Serratia marcescens IF03759; assay: as above; format: cell-based; conditions: 10^6 cells/ml, Mueller Hinton agar, 37° C., 20 hours
Procedure: as §2

[7] = system: Staphylococcus aureus Smith; assay: as above; format: cell-based; conditions: 10^6 cells/ml, Mueller Hinton agar, 37° C., 20 hours
Procedure: as §2

Escherichia coli 67 [8] = assay: Protection ability against systemic infection; format: in vivo; conditions: Escherichia coli, 67, iv, 168 h; ICR mice, intraperitoneal infection, compound intravenously 1 hour after infection, survival at 1 week
Procedure: as §1

[9] = system: Klebsiella pneumoniae IF03317; assay: Protection ability against systemic infection; format: in vivo; conditions: IF03317, iv, 168 h, ICR mice, intraperitoneal infection, compound intravenously 1 hour after infection, survival at 1 week
Procedure: as §1

[10] = system: Pseudomonas aeruginosa IF03445; assay: Protection ability against systemic infection; format: in vivo; conditions: IF03445, iv, 168 h, ICR mice, intraperitoneal infection, compound intravenously 1 hour after infection, survival at 1 week
Procedure: as §1

Row | Compound | ED50 [1] [mg/kg] | LD50 [2] [mg/kg] | MIC (Escherichia coli 67 [3]) [µg/mL] | MIC [4] [µg/mL] | MIC (Proteus morganii IF03848) [µg/mL] | MIC [5] [µg/mL] | MIC [6] [µg/mL] | MIC [7] [µg/mL] | ED50 (Escherichia coli 67 [8]) [mg/kg] | ED50 [9] [mg/kg] | ED50 [10] [mg/kg]
1 | Cc1nnc(SCC2=C(C(=O)O)N3C(=O)[C@@H](NC(=O)Cn4cnnn4)[C@H]3SC2)s1 [CEZ, reference compound] | 74 |  |  |  |  |  |  |  |  |  | 
2 | CO/N=C(\C(=O)N[C@@H]1C(=O)N2C(C(=O)O)=C(CSc3cc(C)nc4ncnn34)CS[C@H]12)c1csc(N)n1 [Compound 1, (6R,7R)-7-[2-(2-amino-4-thiazolyl)-2-(Z-methoxyimino)acetamido]-3-[(5-methyl-s-triazolo[1,5-a]pyrimidin-7-yl)thiomethyl]-8-oxo-5-thia-1-azabicyclo[4.2.0] oct-2-ene-2-carboxylic acid] |  | > 1000 | < 0.05 | < 0.05 | 0.78 (≈ 1.39 µM) | 50 (≈ 89 µM) | 0.2 (≈ 0.356 µM) | 1.57 (≈ 2.8 µM) | 0.7 | 0.1 | 780
3 | CO/N=C(\C(=O)N[C@@H]1C(=O)N2C(C(=O)O)=C(CSc3cc(C)nc4nc(C(=O)O)nn34)CS[C@H]12)c1csc(N)n1 [Compound 2, (6R,7R)-7-[2-(2-amino-4-thiazolyl)-2-(Z-methoxyimino)acetamido]-3-[(2-carboxy-5-methyl-s-triazolo[1,5-a]pyrimidin-7-yl)thiomethyl]-8-oxo-5-thia-1-azabicyclo[4.2.0]oct-2-ene-2-carboxylic acid] |  | > 1000 | < 0.05 | < 0.05 | 0.2 (≈ 0.33 µM) | 12.5 (≈ 20.6 µM) | < 0.05 | 1.57 (≈ 2.59 µM) | 0.8 | 0.1 | 360
4 | CO/N=C(\C(=O)N[C@@H]1C(=O)N2C(C(=O)O)=C(CSc3cc(C(=O)O)nc4ncnn34)CS[C@H]12)c1csc(N)n1 [Compound 6, (6R,7R)-7-[2-(2-amino-4-thiazolyl)-2-(Z-methoxyimino)acetamido]-3-[(5-carboxy-s-triazolo[1,5-a]pyrimidin-7-yl)thiomethyl]-8-oxo-5-thia-1-azabicyclo [4.2.0]oct-2-ene-2-carboxylic acid] |  | > 1000 | < 0.05 | < 0.05 | 0.2 (≈ 0.338 µM) | 6.25 (≈ 10.6 µM) | 0.2 (≈ 0.338 µM) | 1.57 (≈ 2.65 µM) | 0.8 | 0.1 | 230
5 | Cc1cc(SCC2=C(C(=O)O)N3C(=O)[C@@H](NC(=O)/C(=N\O)c4csc(N)n4)[C@H]3SC2)n2nc(C(=O)O)nc2n1 [Compound 8, (6R,7R)-7-[2-(2-amino-4-thiazolyl)-2-(Z-hydroxyimino)acetamido]3-[(2-carboxy-5-methyl-s-triazolo[1,5-a]pyrimidin-7-yl)thiomethyl]-8-oxo-5-thia-1-azabicyclo[4.2.0]oct-2-ene-2-carboxylic acid] | 3.55 | > 1000 | 0.2 (≈ 0.338 µM) | < 0.05 | 0.39 (≈ 0.659 µM) | > 100 | 0.2 (≈ 0.338 µM) | 0.78 (≈ 1.32 µM) |  | 7.68 | 
6 | Cc1cc(SCC2=C(C(=O)O)N3C(=O)[C@@H](NC(=O)/C(=N\OC(=O)c4ccco4)c4csc(N)n4)[C@H]3SC2)n2nc(C(=O)O)nc2n1 [Compound 9, (6R,7R)-7-[2-(2-amino-4-thiazolyl)-2-[Z-(2-furancarbonyl)oxyimino]acetamido]-3-[(2-carboxy-5-methyl-s-triazolo[1,5-a]pyrimidin-7-yl)thiomethyl]-8-oxo-5-thia-1-azabicyclo[4.2.0]oct-2-ene-2-carboxylic acid] | 2.11 | > 1000 | < 0.05 | < 0.05 | 0.2 (≈ 0.292 µM) | 100 (≈ 146 µM) | < 0.05 | 0.39 (≈ 0.569 µM) |  | 7.68 | 
7 | Cc1cc(SCC2=C(C(=O)O)N3C(=O)[C@@H](NC(=O)/C(=N\OC(=O)c4cccs4)c4csc(N)n4)[C@H]3SC2)n2nc(C(=O)O)nc2n1 [Compound 10, (6R,7R)-7-[2-(2-amino-4-thiazolyl)-2-[Z-(2-thiophenecarbonyl)oxyimino]acetamido]-3-[(2-carboxy-5-methyl-s-triazolo[1,5-a]pyrimidin-7-yl)-thiomethyl]-8-oxo-5-thia-1-azabicyclo[4.2.0]-oct-2-ene-2-carboxylic acid] | 8.01 | > 1000 | 0.1 (≈ 0.143 µM) | < 0.05 | 0.39 (≈ 0.556 µM) | 50 (≈ 71.3 µM) | 0.1 (≈ 0.143 µM) | 0.39 (≈ 0.556 µM) |  |  | 
8 | CO/N=C(\C(=O)N[C@@H]1C(=O)N2C(C(=O)O)=C(CSc3nn4c(=O)cc(C)nc4s3)CS[C@H]12)c1csc(N)n1 [Compound 24, (6R,7R)-7-[2-(2-amino-4-thiazolyl)-2-(Z-methoxyimino)acetamido]-3-[(7-methyl-5oxo-5H-1,3,4-thiadiazolo[3,2-a]pyrimidin-2-yl)thiomethyl]-8-oxo-5-thia-1-azabicyclo[4.2.0]oct-2-ene-2-carboxylic acid] |  |  | < 0.05 | < 0.05 | 0.39 (≈ 0.656 µM) | 50 (≈ 84.1 µM) | 0.2 (≈ 0.336 µM) | 0.78 (≈ 1.31 µM) |  |  | 
9 | Cc1cc(SCC2=C(C(=O)O)N3C(=O)[C@@H](NC(=O)/C(=N\OC(=O)c4ccccc4)c4csc(N)n4)[C@H]3SC2)n2nc(C(=O)O)nc2n1 [Compound 25, (6R,7R)-7-[2-(2-amino-4-thiazolyl)-2-(Z-benzoyloxyimino)acetamido]-3 [(2-carboxy-5-methyl-s-triazolo[1,5-a]pyrimidin-7-yl)thiomethyl]8-oxo-5-thia-1-azabicyclo[4.2.0]oct-2-ene 2-carboxylic acid] |  |  | 0.1 (≈ 0.144 µM) | < 0.05 | 0.39 (≈ 0.561 µM) | 50 (≈ 71.9 µM) | 0.1 (≈ 0.144 µM) | 0.39 (≈ 0.561 µM) |  |  | 
10 | Cc1cc(SCC2=C(C(=O)O)N3C(=O)[C@@H](NC(=O)/C(=N\OC(=O)c4ccc[nH]4)c4csc(N)n4)[C@H]3SC2)n2nc(C(=O)O)nc2n1 [Compound 26, (6R,7R)-7-[2-(2-amino-4-thiazolyl)-2-[Z-(2-pyrrolecarbonyl)oxyimino]acetamido]-3-[(2-carboxy-5-methyl-s-triazolo[1,5-a]pyrimidin-7-yl)thiomethyl]-8-oxo-5-thia-1-azabicyclo[4.2.0]oct-2-ene-2-carboxylic acid] |  |  | 0.2 (≈ 0.292 µM) | < 0.05 | 0.78 (≈ 1.14 µM) | 25 (≈ 36.5 µM) | 0.2 (≈ 0.292 µM) | 1.57 (≈ 2.29 µM) |  |  | 
11 | CC(=O)Oc1ccc(C(=O)O/N=C(\C(=O)N[C@@H]2C(=O)N3C(C(=O)O)=C(CSc4cc(C)nc5nc(C(=O)O)nn45)CS[C@H]23)c2csc(N)n2)cc1OC(C)=O [Compound 27, (6R,7R)-7-[2-(2-amino-4-thiazolyl)-2-[Z-(3,4-diacetoxybenzoyl)oxyimino]acetamido]-3-[(2-carboxy-5-methyl-s-triazolo[1,5-a]pyrimidin-7-yl)thiomethyl]-8-oxo-5-thia-1-azabicyclo[4.2.0]oct-2-ene-2-carboxylic acid] |  |  | < 0.05 | < 0.05 | 0.2 (≈ 0.246 µM) | 0.39 (≈ 0.48 µM) | < 0.05 | 1.57 (≈ 1.93 µM) |  |  | 
